Read-outs that look alike come from different tables or passages of the source.
Tests used:
subjects with RRMS = assay: BRAVO phase III trial: laquinimod vs placebo and Interferon β-1a (Avonex) reference arm; assay type: in vivo, human
Description: A multinational, multicenter, randomized, parallel-group, clinical trial is performed in subjects with RRMS (“BRAVO”).
Interferon β-1a (Avonex®) 30 mcg intramuscular injection once weekly (400 subjects).
During the study, the following assessments are performed (regardless of the treatment assignment) at the specified time points: • 1. Vital signs (temperature, pulse, blood pressure) are measured at each study visit. • 2. A physical examination is performed at months −1 (screening), (baseline) 1, 3, 6, 12, 18 and 24 (termination/early discontinuation). • 3. The following safety clinical laboratory tests are performed: • a. Hematology and Complete blood count (CBC) with differential—at all scheduled visits. A reticulocyte count is added to the CBC at months 0 (baseline) and 24 (termination/early discontinuation) as well as in occasions of significant decrease in hemoglobin. • b. Serum chemistry (including electrolytes, liver enzymes, direct and total bilirubin, CPK and pancreatic amylase), and urinalysis—at all scheduled visits. • c. Serum TSH, T3 and Free T4 are measured at months 0 (baseline), 6, 12, 18 and 24 (termination/early discontinuation). • d. A rapid urine β-hCG test is performed in women of child-bearing potential at baseline (month 0; all subjects) and at each scheduled study visit thereafter (at site; only subjects assigned to oral treatment). • e. β-hCG in women of child-bearing potential are performed at each study visit. • f. Starting after visit Month 3 a rapid urine β-hCG test is performed in women of child-bearing potential (only those assigned to oral treatment) every 28 (±2) days. The subject is contacted by telephone with 72 hours after the test is scheduled to be performed and asked specific questions regarding the test. In case of suspected pregnancy (positive urine β-hCG test result), the caller makes sure that the study drug has been discontinued and the subject is instructed to arrive to the site as soon as possible with all study drugs. • 4. Markers of inflammation (serum conventional C-reactive protein and fibrinogen) are measured at all scheduled visits. • 5. […] These samples are collected at months 0, 12 and 24. • 6. […] In case of suspected thrombotic event, the subject is requested to arrive at the site immediately for further evaluation. […] ECG is performed at months −1 (screening; additional recording, up to 30 minutes apart are performed if QTc is >450 msec), 0 (baseline; three recordings, 15 minute apart), 1, 2, 3, 6, 12, 18 and 24 (termination/early discontinuation). • 8. Chest X-ray is performed at month −1 (screening) (if not performed within 6 months prior to screening visit). • 9. Adverse Events (AEs) are monitored throughout the study and recorded. • 10. Concomitant medications are monitored throughout the study. • 11. Neurological evaluations, including Neurostatus [Functional Systems (FS), Expanded Disability Status Scale (EDSS; Converted scale), Ambulation Index (AI)] and Timed-25 foot walk test are performed at months −1 (screening), 0 (baseline) and every 3 months thereafter, until termination/early discontinuation. (At screening visit, the Timed-25 foot walk test is performed 3 times, for practicing purposes, as a part of the MSFC). • 12. MS Functional Composite (MSFC) is assessed at months −1 (screening) (three practices for training purposes only), 0 (baseline), 6, 12, 18 and 24 (termination/early discontinuation). • 13. The general health status is assessed by the EuroQoL (EQ5D) questionnaire at months 0 (baseline) and 24 (termination/early discontinuation). • 14. The general health status and quality of life parameters are assessed by the Short-Form general health survey (SF-36) subject-reported questionnaire at month 0 (baseline) and every 6 months thereafter until termination/early discontinuation, inclusive. • 15. Subject-reported fatigue is assessed by the Modified Fatigue Impact Scale (MFIS) at months 0 (baseline), 2, 6, 12, 18 and 24 (termination/early discontinuation). • 16. […]

relapsing MS = settings: cited from earlier work; for Development of active MRI lesions in relapsing MS: Polman, 2005
[1] = 0.6 mg daily oral compared to weekly 30 mcg Interferon β-1a (Avonex)

**Q.** With `CCN(C(=O)c1c(O)c2c(Cl)cccc2n(C)c1=O)c1ccccc1` [Laquinimod, laquinimod] as the molecule, how does the “Accumulation of physical disability (MSFC score, time to confirmed progression of EDSS)” value (subjects with RRMS; 0.6 mg daily oral) read?
**A.** reduces the accumulation of physical disability

**Q.** And the “Brain atrophy (percent brain volume change from baseline to end of treatment)” value (subjects with RRMS; 0.6 mg daily oral)?
**A.** reduces brain atrophy

**Q.** And the “Fatigue (MFIS)” value (subjects with RRMS; 0.6 mg daily oral)?
**A.** reduces the fatigue

**Q.** And the “General health status (SF-36)” value (subjects with RRMS; 0.6 mg daily oral)?
**A.** improves the general health status

**Q.** What about the “Prevention or delay of relapses” value (subjects with RRMS; 0.6 mg daily oral) of the same molecule?
**A.** prevents or delays relapses

**Q.** What about the “Quality of life (EuroQoL EQ5D)” value (subjects with RRMS; 0.6 mg daily oral) of the same molecule?
**A.** improves the quality of life

**Q.** And the “Severe relapses (requiring hospitalization or intravenous steroid treatment)” value (subjects with RRMS; 0.6 mg daily oral)?
**A.** reduces the rate of severe relapses or the severity of relapses

**Q.** And the Adverse effects (subjects with RRMS; [1])?
**A.** fewer adverse effects, less severe adverse effects

**Q.** What about the “Safety and tolerability profile” value (subjects with RRMS; [1]) of the same molecule?
**A.** favorable safety and tolerability profile

**Q.** What about the “Number of confirmed relapses” value (subjects with RRMS; 0.6 mg daily oral, vs placebo and Avonex arm) of the same molecule?
**A.** reduces the number of confirmed relapses

**Q.** What about the “MRI and clinical effect as compared to placebo” value (relapsing MS; 0.3 mg/day oral dose, Comi, 2007) of the same molecule?
**A.** neither MRI nor clinical effect

**Q.** What about the “Development of active MRI lesions in relapsing MS” value (relapsing MS; 0.3 mg/day oral dose) of the same molecule?
**A.** reduce development of active MRI lesions

**Q.** What about the “Development of active MRI lesions in relapsing MS” value (relapsing MS) of the same molecule?
**A.** reduce development of active MRI lesions

From patent US20120142730A1 (priority 2010, published 2012)
